Laboratory results reported in patent publication US8507448B2, “Human CD154-binding synthetic peptide and uses thereof” (Fresenius Medical Care Deutschland G.m.b.H., priority 2007, dated 2013).

Assays:
[1] = target: T1, human CD154 expressed on the surface of J558L cells (Homo sapiens, UniProt P29965); experiment: Binding of -His6-tagged peptides to J558L CD154+ cells by flow cytometry; conditions: -His6 peptides 60 μM, 30 minutes at room temperature
T1 construct: expressed in transfected cells; host or cells: J558L murine myeloma cell line transfected with human CD154
T1 sequence (P29965 1-261): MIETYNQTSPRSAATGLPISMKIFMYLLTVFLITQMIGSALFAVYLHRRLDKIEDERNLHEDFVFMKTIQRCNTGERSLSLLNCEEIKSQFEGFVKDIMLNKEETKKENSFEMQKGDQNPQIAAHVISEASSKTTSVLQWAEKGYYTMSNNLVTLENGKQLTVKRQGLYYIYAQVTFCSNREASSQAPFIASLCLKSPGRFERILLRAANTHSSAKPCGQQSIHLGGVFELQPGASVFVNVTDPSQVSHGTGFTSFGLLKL
Procedure: FIG. 2 represents the binding of the seven peptides obtained from the human CD154-binding clones and tagged with a 6 histidines tail (-His6) to the J558L CD154^+ cells. […] The cells were incubated with each of the -His6-tagged peptides and then with a phycoerythrin-conjugated secondary antibody specific for the -His6 tail. The dotted histogram is the isotopic control, whilst the black line is the binding intensity of the CD154-specific peptides [4.2=4.3=CPSGHTKAC (SEQ ID NO: 1), 4.4=CGTHSSRIC (SEQ ID NO: 2), 4.6=CLGTQNKEC (SEQ ID NO: 3), 4.7=4.12=CTPGKPHSC (SEQ ID NO: 4), 4.8=CKAASANIC (SEQ ID NO: 5), 4.10=CLPTRHMAC (SEQ ID NO: 6) and 4.11=CLSAVHNMC (SEQ ID NO: 7)]. For each experimental condition, 10,000 events were analyzed and the values are the mean and standard deviation of 3 different experiments.
(§1) The peptides were synthesized and conjugated with biotin (-bio) or with a 6-histidine tail (-his6) so as to enable in vitro and in vivo localization. […] Furthermore, a competition assay between the peptides and an anti-human CD154 fluorescein-conjugated antibody (Serotec) specifically recognizing the active site of CD154 was carried out. The J558L cells were incubated with the his6-peptides for 30 minutes at room temperature and then with anti-human CD154 fluorescein-conjugated antibody for another 30 minutes at room temperature. […] In order to identify the amino acid residues of the amino acid sequence of peptide 4.10 which are essential to the binding to CD154, three different peptides were synthesized, each one carrying a point mutation, which amino acid sequences differ from that of peptide 4.10 by replacement of the amino acid residues at positions 4, 5, 6, respectively, with one alanine residue.
The mutated peptides were not capable of recognizing human CD154 expressed at the surface of J558L cells (data not shown).
Similar results were obtained with the four modified peptides 4.101, 4.102, 4.103 e 4.104 having the amino acid sequences illustrated in table II.

[2] = target: T2, active site of human CD154 (Homo sapiens, UniProt P29965); experiment: Competition with anti-human CD154 fluorescein-conjugated antibody on J558L cells; assay type: binding; conditions: -His6 peptides 30 minutes at room temperature, then antibody
T2 construct: expressed in transfected cells; host or cells: J558L murine myeloma cell line transfected with human CD154
T2 sequence (P29965 1-261): T1 sequence (P29965 1-261)
Procedure: The murine myeloma cells transfected with human CD154, J558L, were incubated with each of the seven anti-CD154 peptides tagged with a 6 histidines tail (-His6), and then with the anti-CD154 fluorescein-conjugated antibody. The ability of the peptides to compete with the anti-CD154 antibody for the binding to the CD154 molecule expressed on the surface of the J558L cells was evaluated by flow cytometry, as the reduction in the fluorescence intensity compared to the positive control represented by cells incubated with the anti-human CD154 fluorescein-conjugated antibody alone. […] The amino acid sequence of the control peptide differs from that of peptide 4.10 in that an arginine residue is replaced with an alanine residue at amino acid position 5.
as §1

[3] = test system: CD40 stimulation of peripheral B cells by rhsCD154; experiment: rhsCD154-induced B cell activation (CD80 and CD86 membrane expression); assay type: cell-based, human
Procedure: The histograms of 4A show the effect of the anti-CD154 peptides and the control peptide 4.10-ala, on the activation B cells induced by stimulation with a soluble recombinant human CD154 molecule (rhsCD154). B cells were stimulated for 48 hours with rhsCD154 in the absence and in the presence of a blocking anti-human CD154 antibody or one of the seven selected peptides. Peripheral B cell activation was evaluated by flow cytometry, as the membrane expression of the co-stimulatory molecules CD80 and CD86. […] On the contrary, the activation is prevented when rhsCD154 is used in combination with a blocking anti-human CD154 antibody or with peptide 4.10 (SEQ ID NO: 6).
B cells are known to constitutively express the CD40 molecule on the cells membrane (van Kooten C. et al, J. Leukoc. Biol. 2000). Stimulation of CD40 by CD154-expressing activated T cells, results in B cells activation, proliferation and isotype switching. The inventors employed B cells isolated from whole peripheral blood of healthy donors by gradient-Ficoll centrifugation and immunomagnetical separation (MACS systems—Milteniy). The quiescent B cells thereby obtained, were then stimulated with a soluble form of human recombinant CD154 (rhsCD154) to induce activation and expression of the co-stimulatory molecules CD80 (B7-1) and CD86 (B7-2) on the cell membrane. A drastic increase in membrane expression of CD80 and CD86 on the cell surface of peripheral B cells, after stimulation for 48 hours with rhsCD154 (100 ng/ml) was observed. […] In contrast, pre-incubation for 15 minutes at 37° C. of rhsCD154 (100 ng/ml) with peptide 4.10 (SEQ. ID NO: 6), prior to lymphocyte stimulation, blocked B cells stimulation and the related expression of CD80 and CD86. […] The results are the mean±standard deviation of five different experiments. Similar results were also obtained with B cells isolated from human spleen fragments. […] These experiments were carried out on […] naive B cells, obtained from peripheral blood by negative selection, by depletion of mature lymphocytes from the B cell pool by immunomagnetic separation (MACS Systems Milteniy).

HUVEC [4] = experiment: rhsCD154-induced HUVEC motility (time-lapse migration); assay type: cell-based, human
Procedure: Peptide 4.10 (SEQ ID NO: 6), contrary to control peptide 4.10-ala (SEQ ID NO: 8), inhibits the rhsCD154-induced motility of endothelial cells.
It is known that an inflammatory process, once triggered, can be preserved by cells outside the immune system expressing particular receptors or lymphocyte co-stimulatory molecules, such as CD40 and its ligand CD154, such as e.g. endothelial cells from the vascular wall. […] In particular, the cell migration experiments were carried out with HUVEC cells plated on gelatin at a density of 4×10^3 in complete endothelial cell medium in the presence of 20% serum. The following day, the endothelial medium was replaced with low glucose DMEM (Sigma) with a reduced serum concentration (5%), in the presence or absence of rhsCD154 (100 ng/ml).
Furthermore, in order to evaluate the inhibitory effect, rhsCD154 (100 ng/ml) was pre-incubated for 15 minutes at 37° C. with peptide 4.10 (SEQ. ID NO: 6), or with control peptide 4.10-ala (SEQ. ID NO: 8), or with a blocking anti-human CD154 antibody. The flasks were then observed at 10× magnification for a period of 4 hours under a phase contrast inverted microscope equipped with a thermostatic chamber (at about 37° C.). The cells were photographed with a camera connected to the microscope, over the whole length of time of 4 hours at regular intervals of 15 minutes each. The migratory speed of each of the cells was calculated based on the position of the nucleus of each single cell in each single frame, using an image analysis software and, as a result, the average cell migratory speed (1 standard deviation) was calculated for each experimental condition. […] As a further confirmation of the ability of peptide 4.10 to prevent human endothelial CD40 stimulation by rhsCD154 (100 ng/ml), HUVECs (3.5×10^4) were subjected to an in vitro angiogenesis assay. HUVECs were plated on a tumor matrix (Matrigel, BD) capable of promoting the formation of super cellular organization, in a basal RPMI medium supplemented with 5% serum. […]

HUVEC [5] = experiment: In vitro angiogenesis: cell cord formation of HUVECs on Matrigel; assay type: cell-based, human; conditions: pre-incubated with rhsCD154 100 ng/ml for 15 minutes at 37° C.; 4 hours
Source text: FIGS. 7B-F show representative images of cell cord formation ability on Matrigel under the various experimental conditions mentioned above (B=unstimulated control; C=rhsCD154; D=rhsCD154+ 4.10 peptide; E=rhsCD154+ 4.10-ala peptide; F=rhsCD154+ blocking anti-CD154 antibody). Peptide 4.10 of the invention (SEQ ID NO: 6), contrary to control peptide 4.10-ala (SEQ ID NO: 8), inhibits the rhsCD154-induced ability of the endothelial cells of forming cell cords.
Furthermore, in order to evaluate the inhibitory effect, rhsCD154 (100 ng/ml) was pre-incubated for 15 minutes at 37° C. with peptide 4.10 (SEQ. ID NO: 6), or with control peptide 4.10-ala (SEQ. ID NO: 8), or with a blocking anti-human CD154 antibody. The flasks were then observed at 10× magnification for a period of 4 hours under a phase contrast inverted microscope equipped with a thermostatic chamber (at about 37° C.). The cells were photographed with a camera connected to the microscope, over the whole length of time of 4 hours at regular intervals of 15 minutes each. The migratory speed of each of the cells was calculated based on the position of the nucleus of each single cell in each single frame, using an image analysis software and, as a result, the average cell migratory speed (1 standard deviation) was calculated for each experimental condition. […] As a further confirmation of the ability of peptide 4.10 to prevent human endothelial CD40 stimulation by rhsCD154 (100 ng/ml), HUVECs (3.5×10^4) were subjected to an in vitro angiogenesis assay. HUVECs were plated on a tumor matrix (Matrigel, BD) capable of promoting the formation of super cellular organization, in a basal RPMI medium supplemented with 5% serum. Upon incubation at 37° C. under 5% CO2 for 4 hours, the cells were observed under a contrast phase inverted microscope.

naive B cells = experiment: Isotype switching of naive B cells induced by IL-4 and rhsCD154; assay type: cell-based, human; conditions: IL-4 0.4 ng/ml and rhsCD154 100 ng/ml, 96 hours, no inhibitor
Procedure: The graphics of FIG. 5A show the percentage of naive B cells undergoing isotype switching and expressing IgG, under basal condition with no stimulation, after stimulation for 72 hours with IL4 and CD154, […] anti-human CD154 antibody, […] 4.10 (SEQ ID NO: 6), respectively. Peptide 4.10 (SEQ ID NO: 6), just as the anti-CD154 antibody, is capable of strongly inhibiting the isotype switching of immunoglobulins induced by stimulation with rhsCD154 and IL4.
B cells are known to constitutively express the CD40 molecule on the cells membrane (van Kooten C. et al, J. Leukoc. Biol. 2000). Stimulation of CD40 by CD154-expressing activated T cells, results in B cells activation, proliferation and isotype switching. The inventors employed B cells isolated from whole peripheral blood of healthy donors by gradient-Ficoll centrifugation and immunomagnetical separation (MACS systems—Milteniy). The quiescent B cells thereby obtained, were then stimulated with a soluble form of human recombinant CD154 (rhsCD154) to induce activation and expression of the co-stimulatory molecules CD80 (B7-1) and CD86 (B7-2) on the cell membrane. A drastic increase in membrane expression of CD80 and CD86 on the cell surface of peripheral B cells, after stimulation for 48 hours with rhsCD154 (100 ng/ml) was observed. […]

human platelets = experiment: Platelet aggregation assay (aggregometer); assay type: cell-based; conditions: priming 10 minutes at 37° C.; peptide 60 μM with CD154
Procedure: Platelet aggregation was measured with an aggregometer, as the increase in light transmission compared to the control. Priming of human platelets with the anti-human CD154 antibody in combination with rhsCD154 increases platelet aggregation upon stimulation with ADP 0.5 μM.
Finally, one of the major advantages of peptide 4.10 is its lack of reactivity towards human platelets. It is know that in the past, a number of clinical trials carried out to test promising anti-CD154 monoclonal antibodies were suddenly discontinued due to dramatic prothrombotic side effects (Kelsoe G. et al, J. Clin. Invest. 2003). The hypothesis is that the anti-CD154 antibodies had triggered a cross-reaction on the surface of human platelets expressing the receptor for the Fc immunoglobulin fraction (FcR) and, after activation, the CD154 molecule. Thus, the inventors tested the effect of peptide 4.10 on platelets, by a platelet aggregation assay. Such experiments were carried out by the use of a thermostatic aggregometer, equipped with a magnetic stirrer and a real time optical density meter. Platelet aggregation was evaluated as the change in optical density versus the reference sample (blank). The experiments were carried out on platelets extracted from peripheral whole blood of healthy donors collected in tubes containing 5 U/ml heparin. In particular, the platelet enriched plasma (PRP), was obtained by whole blood centrifugation at 900 rpm for 20 minutes, while the platelet poor plasma (PPP), used as the reference sample, was obtained collecting the supernatant after another centrifugation at 3000 rpm for 10 minutes. […] Similar results were obtained inducing platelet aggregation with 0.3 U/ml thrombin.

[6] = rhsCD154 100 ng/ml alone, 48 hours

Substance | binding to J558L CD154+ cells [1] | competition with anti-human CD154 fluorescein-conjugated antibody specific for the active site of CD154 [2] | inhibition of rhsCD154-induced B cell activation (CD80 and CD86 expression) ([3]; 250 μM) | effect on rhsCD154-induced motility of HUVEC (HUVEC [4]; pre-incubated with rhsCD154 100 ng/ml for 15 minutes at 37° C.) | effect on rhsCD154-induced formation of vessel-like cell cords on Matrigel (HUVEC [5]) | increase in membrane expression of CD80 compared to basal levels [3, 6] [%] | increase in membrane expression of CD86 compared to basal levels [3, 6] [%] | increase in the number of B cells expressing membrane IgG (naive B cells) [%] | increase in the basal motility of cells (HUVEC [4]; rhsCD154 100 ng/ml alone) | cell migratory speed (HUVEC [4]; rhsCD154 100 ng/ml alone, basal lower than 12 μm/h) [μm/h] | platelet aggregation induced by ADP 0.5 μM after priming (human platelets)
CLPTAHMAC (binding protein) [peptide 4.10-ala, control peptide; arginine at position 5 of peptide 4.10 replaced with alanine, reference compound] | least reactive | complete inactivation of the peptide's ability to compete | neither affected the expression of CD80 and CD86 | did not affect endothelial CD40 stimulation | did not affect the ability of the cells to form vessel-like cell cords | – | – | – | – | – | –
rhsCD154: recombinant soluble form of human CD154, used as the CD40 stimulus [reference compound] | – | – | – | – | – | 300 | 274 | 25 | about 350% | 42 | did not enhance platelet aggregation
